The source of these data is patent US20070112068A1, “Nitrile compound and its use in pest control” (priority 2003, published 2007).

What all share (format): in vivo
One assay has as its system Megaselia spiracularis. In words: Experimental Example 8: treated filter paper suspended in glass chamber, Megaselia spiracularis. The note with it: 2.5 ml of 2% (w/v) acetone solution on filter paper; 70 cm cube chamber; 2 hours exposure, 24 hours later. The method, then: A 2% (w/v) solution of the present compound (31) in acetone was prepared. Onto a filter paper with 10 cm×12.5 cm, 2.5 ml of the solution was added dropwise uniformly and then air-dried. This filter paper was suspended from the center of the ceiling of a glass chamber with 70 cm (width)×70 cm (depth)×70 cm (height) and therein 20 imagoes of Megaselia spiracularis were released. After 2 hours, all test pests were collected, put in a plastic cup together with absorbent cotton impregnated with 5% sugar water, and then left at 25° C. After 24 hours, the number of surviving Megaselia spiracularis was examined and the death rate was calculated.

The test system of assay [1] is Culex pipiens pallens. In words: Experimental Example 10: treated filter paper in Peet-Grady chamber, Culex pipiens pallens. To be noted: 5 ml of 1% (w/v) acetone solution on filter paper; 1.8 m Peet-Grady chamber; female imagoes; 1 hour exposure, 24 hours later. The method, then: (§1) A 1% (w/v) solution of the present compound (31) in acetone was prepared. Onto a filter paper with 10 cm×25 cm, 5 ml of the solution was added dropwise uniformly and then air-dried. This filter paper was suspended from the center of the ceiling center of a Peet-Grady chamber with 1.8 m (width)×1.8 m (depth)×1.8 m (height) and therein about 50 female imagoes of Culex pipiens pallens were released. After 1 hour, all test pests were collected, put into a plastic cup together with absorbent cotton impregnated with 5% sugar water, and then left at 25° C. After 24 hours, the number of surviving Culex pipiens pallens was examined and the death rate was calculated.

For the next assay, the system named is Musca domestica. The assay can be described thus: Experimental Example 11: treated filter paper in Peet-Grady chamber, Musca domestica. To be noted: 5 ml of 1% (w/v) acetone solution on filter paper; 1.8 m Peet-Grady chamber; 1 hour exposure, 24 hours later. The method, then: as §1, with “50” for “50 female”, “Musca domestica” for “Culex pipiens pallens”
The test system of a further assay is Coptotermes formosanus. In words: Experimental Example 12: topical application, Coptotermes formosanus. The note with it: 0.2 μl of 0.005% (w/v) solution onto notum of thorax of ergates; after one day. The method, then:
The present compound (31) was dissolved in a 0.05% (w/v) solution of Sudan red 7B in acetone so that the present compound concentration was 0.005% (w/v) to prepare an experimental pesticidal solution. Onto the notum of the thorax of ergates of Coptotermes formosanus, 0.2 μl of this experimental solution was added dropwise. After one day from treatment, the number of surviving pests was examined and the death rate of the pest was calculated.

The subject of another assay is Periplaneta fuliginosa. The assay can be described thus: Experimental Example 16: treated filter paper in paper box, Periplaneta fuliginosa. To be noted: 0.1 ml of 5% (w/v) acetone solution on filter paper in paper box; after 7 days. The method, then: (§2) 5% (w/v) solutions of the present compounds (23), (24) and (31) in acetone were prepared. 0.1 ml of the solution was added dropwise onto a filter paper with 2 cm×2 cm and then air-dried. This filter paper was attached to the center of the inside bottom of a paper box having 10 cm (width)×2 cm (height)×7 cm (depth) with a two-sided tape. One hole of 2 mm in width and 2 cm in height was made through one side of this box. This box was placed in a plastic vat with 25 cm×20 cm×8 cm in height and therein 3 females and 3 males of Periplaneta fuliginosa were released. The inside wall of the plastic vat used in this experiment was coated with talc for preventing the escape of cockroaches. The plastic vat contained feed and water and left at 25° C. After 7 days, Periplaneta fuliginosa was observed and the death rate of the pest was calculated. This experiment was repeated two times.

The test system of another assay is Periplaneta americana. In words: Experimental Example 17: treated filter paper in paper box, Periplaneta americana. The note with it: 0.1 ml of 5% (w/v) acetone solution on filter paper in paper box; after 7 days. The method, then: as §2, with “A 5%” for “5%”, “(w/v) solution” for “(w/v) solutions”, “present compound” for “present compounds (23), (24) and”, “acetone was” for “acetone were”, “Periplaneta americana” for “Periplaneta fuliginosa”

The subject of a further assay is Formica fusca japonica. The assay can be described thus: Experimental Example 23: treated filter paper on cup lid, Formica fusca japonica. The note with it: 0.1 ml of 5% (w/v) acetone solution on filter paper on lid; after 7 days. The method, then: A 5% (w/v) solution of the present compound (31) in acetone is prepared. 0.1 ml of the solution is added dropwise to a filter paper with 2 cm×2 cm and then air-dried. 10 imagoes of Formica fusca japonica are released in a plastic cup having a diameter of 12.5 cm and a height of 8 cm. After feed and water are placed therein, the cup is closed with a lid. The aforementioned pesticide-treated filter paper is attached to the inner surface of the lid. In addition, the inside wall of the cup is coated with talc for preventing the climbing of ants. This cup is kept at 25° C.

Assay [2] deals with Culex pipiens pallens. In words: Experimental Example 25: electric mosquito mat, Culex pipiens pallens. To be noted: electric mosquito mat (Formulation Example 18); 20 minutes exposure, after 24 hours. As for the experimental part:
An electric mosquito mat of the present compound (31) prepared according to Formulation Example 18 is set on a heater for an electric mosquito mat and then placed on the centre of the floor of a chamber having 70 cm (width)×70 cm (depth)×70 cm (height). After the electric mosquito mat is initiated to be heated with the heater, about 20 female imagoes of Culex pipiens pallens are released in the chamber. After 20 minutes, all test pests are collected, placed in a plastic cup together with absorbent cotton impregnated with 5% sugar water, and left at 25° C.

The subject of assay [3] is Culex pipiens pallens. The assay can be described thus: Experimental Example 27: fan-ventilated knitted fabric preparation, Culex pipiens pallens. The note with it: preparation of Formulation Example 10 ventilated by electric fan; 20 minutes exposure, after 24 hours. The method, then: A preparation of the present compound (31) prepared according to Formulation Example 10 is set at the upper part of an electric fun shown in FIG. 5 and then placed on the center of the floor of a chamber having 70 cm (width)×70 cm (depth)×70 cm (height). After the electric fan is operated to initiate to ventilate the preparation, about 20 female imagoes of Culex pipiens pallens are released in the chamber. After 20 minutes, all test pests are collected, placed in a plastic cup together with absorbent cotton impregnated with 5% sugar water, and left at 25° C.

`N#CC(C#N)(CCC(F)(F)F)CC(F)(F)C(F)(F)C(F)(F)C(F)F` [(31)]: the “death rate of the pest” value is listed as 100% with Megaselia spiracularis; 86% in the assay on Culex pipiens pallens [1]; 92% in the assay on Musca domestica; 100% with Coptotermes formosanus; 100% in the assay on Periplaneta fuliginosa; 100% with Periplaneta americana. Besides, the results for the pesticidal effect result in the assay on Formica fusca japonica, in the assay on Culex pipiens pallens [2] and with Culex pipiens pallens [3] were “pesticidal effect on Formica fusca japonica is confirmed”, “pesticidal effect on Culex pipiens pallens is confirmed” and “pesticidal effect on Culex pipiens pallens is confirmed”, respectively.
